# Measured values reported in PubChem BioAssay AID1996.
# Conditions: buffer; pH 7.4; 200.0 µM
row,SMILES,solubility kinetic
1,O=C(CN1C(=O)COc2ccc(Cl)cc21)NC1CC1,> 42.1 µg/mL
2,NC(=O)c1ccccc1NC(=O)Nc1ccc(F)c(Cl)c1,2.1 µg/mL
3,c1ccc2sc(NC3=NCN(CC4CCCO4)CN3)nc2c1 (stereo not drawn),42.1 µg/mL
4,CCOc1ccc(N2C(=O)CC(NCc3ccc(S(N)(=O)=O)cc3)C2=O)cc1 (stereo not drawn),48.7 µg/mL
5,COc1ccc(CCNc2nc(C)c(C(C)=O)s2)cc1OC,44.1 µg/mL
6,CNC(=O)c1c(NC(=O)c2cccc(C)c2)sc2c1CCC2,0.4 µg/mL
7,Cc1cc(NC(=S)Nc2cccnc2)ccc1Br,40.7 µg/mL
8,COc1cc2ncnc(NCc3ccc(F)cc3)c2cc1OC,> 47 µg/mL
9,CC(C)Oc1ccc(/C=C/C(=O)NCC2COc3ccccc3O2)cc1 (stereo not drawn),2.8 µg/mL
10,O=C(Nc1ccc([N+](=O)[O-])cc1)c1cc(Cl)sc1Cl,< 0.3 µg/mL
11,Cc1ccc(Nc2nc(-c3ccccc3)c(CC(=O)O)s2)cc1,> 48.7 µg/mL
12,Cc1ccc(S(=O)(=O)CCSc2nccn2C)cc1,> 44.5 µg/mL
13,CCOC(=O)c1c(C)oc2c1c(C=NCC1CCCO1)c(O)c1ccccc12 (stereo not drawn),< 0.8 µg/mL
14,Cc1cc2nccc(-c3ccncc3)n2n1,> 31.5 µg/mL
15,Cc1[nH]c2ccc(C(=O)NC3CCCC3)cc2c1C,> 38.5 µg/mL
16,CCOC(=O)c1ccc(CSC(=N)N)o1,31.4 µg/mL
17,O=C(Cc1c[nH]c2ccccc12)Nc1ccc(N2CCOCC2)cc1,10.1 µg/mL
18,Cc1ccc(CNc2nc(-c3cccnc3)nc3ccccc23)cc1,2.5 µg/mL
19,CCN1CCN(S(=O)(=O)c2ccc3c4c(cccc24)C(=O)N3CC)CC1,> 56 µg/mL
20,NS(=O)(=O)c1ccc(NC(=O)c2ccc(S(=O)(=O)N3CCCCCC3)cc2)cc1,6.3 µg/mL
21,N#CCCN(C(=O)COC(=O)CSc1ccc(Cl)cc1)c1ccccc1,56.9 µg/mL
22,COc1cc(NC(C)CCc2ccccc2)cc(OC)c1OC (stereo not drawn),> 47.3 µg/mL
23,Cc1cc(C)cc(NC(=S)N2CCCC2)c1,> 35.2 µg/mL
24,COc1ccc(-c2csc(N=C(N)N)n2)cc1,12.2 µg/mL

row,SMILES,solubility kinetic
1,Nc1ccccc1NC(=O)NC(=O)c1ccccc1,6.1 µg/mL
2,CCOC(=O)COc1cc2oc(=O)cc(C)c2cc1[N+](=O)[O-],3 µg/mL
3,O=C(O)C(c1ccccc1)N1C(=O)c2ccccc2C1=O (stereo not drawn),40.7 µg/mL
4,Nc1ccc(C(=O)CC(=O)Nc2ccc(Cl)cc2)cc1,14.3 µg/mL
5,CC(=O)Nc1ccc(C(=O)NCC2CCCCC2)cc1,36.4 µg/mL
6,CCCn1c(=O)c(C(=O)Nc2cccc(C)c2)c(O)c2ccccc21,< 0.4 µg/mL
7,O=C(Nc1ccc(F)cc1)c1ccc(CSc2ccc(Cl)cc2)o1,4.3 µg/mL
8,O=C(Nc1ccc(F)cc1)c1ccc2[nH]c(=O)c(=O)[nH]c2c1,> 44.9 µg/mL
9,CC(NC(=O)COc1cccnc1[N+](=O)[O-])c1ccc(F)cc1 (stereo not drawn),> 47.9 µg/mL
10,CC(NC(=O)COC(=O)C12CC3CC(CC(O)(C3)C1)C2)c1ccccc1 (stereo not drawn),> 53.6 µg/mL
11,O=C1CC(c2ccccc2)CC(O)=C1C=NCCc1ccccc1 (stereo not drawn),2.1 µg/mL
12,O=C(COC(=O)CCC(=O)N1CCOCC1)Nc1ccc(Br)cc1Br,> 71.7 µg/mL
13,OCC1(Cc2ccccc2)CCN(Cc2cc3ccccc3o2)CC1,> 50.3 µg/mL
14,Cc1cccc2c1NC(=O)C2=Nc1ccc(Cl)cc1,4.7 µg/mL
15,CCOc1ccc(OCCSc2nc(N)cc(=O)[nH]2)cc1,4.1 µg/mL
16,COc1ccc(C(=O)Nc2ccc(Nc3ccccc3)cc2)cc1Br,< 0.4 µg/mL
17,CN1CCCC(OC(=O)c2cccc(Br)c2)C1.Cl (stereo not drawn),> 50.2 µg/mL
18,Clc1cc(NC2CCCCC2)ncn1,> 31.8 µg/mL
19,CCC1(CC)Cc2ccccc2-c2[nH]c(=S)[nH]c(=O)c21,27.3 µg/mL
20,COc1cccc(NC(=O)CSc2cccc[n+]2[O-])c1,> 43.6 µg/mL
21,C/C(=N\OC(=O)Nc1ccccc1)c1ccc(C)cc1,15 µg/mL
22,O=C(NCCCO)c1c(O)c2cccc3c2n(c1=O)CCC3,> 45.3 µg/mL
23,Cc1ccc2ccccc2c1NC(=O)c1ccco1,> 37.7 µg/mL
24,O=CN1CCN(CC(O)Cn2c3ccccc3c3ccccc32)CC1 (stereo not drawn),43.3 µg/mL

row,SMILES,solubility kinetic
1,COc1ccc(NC(=O)CN2C(=O)C(C)Oc3ccc(C)cc32)cc1 (stereo not drawn),9.6 µg/mL
2,CCOc1ccc(NC(=O)CN(C)C(=O)c2ccncc2)cc1OCC,> 53.6 µg/mL
3,CCOc1cc(/C=C/C(=O)OCC(=O)NCC2CCCO2)cc(Cl)c1OC (stereo not drawn),52.7 µg/mL
4,CCOC(=O)c1cnn(C)c1NC(=O)c1ccc(Cl)cc1Cl,> 51.3 µg/mL
5,O=C(COC(=O)C1CCCCC1)Nc1cc([N+](=O)[O-])ccc1F,36.4 µg/mL
6,O=c1c2[nH]c3ccc(F)cc3c2ncn1CC1CCCO1 (stereo not drawn),3.9 µg/mL
7,CC(=O)N1CCN(C(=O)c2cccc(S(=O)(=O)N3c4ccccc4CC3C)c2)CC1 (stereo not drawn),> 64.1 µg/mL
8,O=C1NC2(CCCC2)C(=O)N1Cc1cc(=O)n2ccsc2n1,> 47.8 µg/mL
9,COc1ccc(C)cc1NC(=O)C1CCN(S(C)(=O)=O)CC1,> 49 µg/mL
10,CCOC(=O)c1cc(C#N)c(SC)nc1C,0.9 µg/mL
11,O=C(COC(=O)CNC(=O)c1ccc(Cl)cc1Cl)NC1CC1,> 51.8 µg/mL
12,COc1ccc(NC(=O)/C=C/c2cccc(C(F)(F)F)c2)cn1,5.3 µg/mL
13,CC1CCCCC1NC(=O)COC(=O)c1ccc2ccccc2n1 (stereo not drawn),7.1 µg/mL
14,Cc1cc(Br)ccc1NC(=S)N1CCOCC1,> 47.3 µg/mL
15,O=C1c2ccccc2NC(c2ccccc2)N1Cc1ccccc1 (stereo not drawn),7.9 µg/mL
16,CCCC/C(O)=C1\C(=O)CCCC1=NCCc1c(C)[nH]c2ccccc12,14.3 µg/mL
17,O=[N+]([O-])c1cccc(S(=O)(=O)N2CCc3ccccc3C2)c1,< 0.3 µg/mL
18,COc1ccc(C(=O)N2CCN(c3ncccn3)CC2)cc1[N+](=O)[O-],50.5 µg/mL
19,CC1CC(C)CN(C(=O)COC(=O)CCC(=O)c2cccs2)C1 (stereo not drawn),> 50.6 µg/mL
20,NS(=O)(=O)c1cnccc1Oc1cccc(Cl)c1,> 42.7 µg/mL
21,CC1(C)CC(=O)C=C(NNC(=O)c2cccnc2)C1,> 38.9 µg/mL
22,CCC(C)NS(=O)(=O)c1cc2c3c(c1)CCC(=O)N3CCC2 (stereo not drawn),> 48.4 µg/mL
23,COc1ccc(OCC(=O)N2CCc3ccccc3C2)cc1,29.8 µg/mL
24,O=c1[nH]c(SCc2ccc(Cl)cc2)nc2ccccc12,0.8 µg/mL

row,SMILES,solubility kinetic
1,O=C(c1cccc(S(=O)(=O)N2CCN(c3ccc(F)cc3)CC2)c1)N1CCCC1,61.9 µg/mL
2,CCC(CC)COC(=O)C1=C(C)NC(=O)NC1c1ccc(OC)cc1 (stereo not drawn),3 µg/mL
3,Cc1cccc(C(=O)NC(=O)Nc2c(C)cc(C)nc2C)c1,> 44.6 µg/mL
4,CCSc1nc(NCCN(C)C)c2c3c(sc2n1)COC(C)(CC)C3 (stereo not drawn),46.4 µg/mL
5,C[C@@H](C(=O)NC1CCCC1)N1C(=O)N2CCc3c([nH]c4ccccc34)[C@@]2(C)C1=O,48.7 µg/mL
6,Cc1cccc(NC(=O)CN2C(=O)C(C)Oc3ccccc32)n1 (stereo not drawn),> 46.7 µg/mL
7,O=C(CSCc1ccc(F)cc1)NCc1cccs1,40.2 µg/mL
8,COc1ccc(CN2CCOCCOCCOCC2)cc1,39.1 µg/mL
9,S=C(NC1CCCCC1)N1CCCCC1,26.3 µg/mL
10,CCC1(c2ccc(F)cc2)NC(=O)N(CC(=O)N2CCN(C(=O)c3ccco3)CC2)C1=O (stereo not drawn),> 66.4 µg/mL
11,COc1cc2c(cc1OC)CN(Cc1cc(OC)c(O)c(OC)c1)CC2,47.7 µg/mL
12,O=Cc1c(NCCN2CCCC2)c2ccccc2[nH]c1=O,> 42.8 µg/mL
13,Cc1ccc(C(C)NC(=O)C2CCCC2)c(C)c1 (stereo not drawn),34.2 µg/mL
14,Cc1c(C)n(-c2ccccc2)c2ncnc(NCCCN(C)C)c12,> 48.5 µg/mL
15,Cc1nc(SCc2cccc(F)c2)c2oc3ccccc3c2n1,< 0.3 µg/mL
16,COc1ccc(CCNC(=O)c2cc3cc(F)ccc3nc2C)cc1OC,2.3 µg/mL
17,COc1ccccc1C(C)NC(=O)c1ccc(S(=O)(=O)NCc2ccco2)cc1 (stereo not drawn),12.6 µg/mL
18,O=C(O/N=C(/c1ccccc1)c1ccncc1)c1ccccc1[N+](=O)[O-],8.3 µg/mL
19,COc1cc2c(cc1OC)C(c1ccccc1C(F)(F)F)CC(=O)N2 (stereo not drawn),< 0.8 µg/mL
20,CCOC(=O)C(Cc1ccccc1)C(=O)NCc1cccnc1 (stereo not drawn),> 46.9 µg/mL
21,CC(=O)Nc1cccc(OCCCNC(=O)c2ccc(F)cc2)c1,38.9 µg/mL
22,Cc1ccc2ncnc(-c3ccccc3)c2c1,25.5 µg/mL
23,O=C(Nc1cccnc1Cl)c1cccc(S(=O)(=O)N2CCOCC2)c1,> 57.3 µg/mL
24,CC(C)(C)OC(=O)N1Cc2[nH]c3ccccc3c2C[C@@H]1C(=O)O,> 47.5 µg/mL

row,SMILES,solubility kinetic
1,COc1ccc(-c2nc(-c3ccncc3)no2)cc1,1.1 µg/mL
2,COc1ccc(NC(=O)COC(=O)CCc2ccc(S(=O)(=O)N3CCOCC3)cc2)cc1Cl,19.6 µg/mL
3,COCc1cc(=O)[nH]c(N2CCN(c3ccccc3OC)CC2)n1,46.3 µg/mL
4,O=[N+]([O-])c1ccc2oc(C(O)c3cccc(Cl)c3)cc2c1 (stereo not drawn),19.4 µg/mL
5,NC(=O)c1cnccn1,> 18.5 µg/mL
6,O=S(=O)(NC1CCN(Cc2ccccc2)CC1)c1ccc(Cl)cc1,> 54.7 µg/mL
7,C=C(C)CN(Cc1ccccc1)C(=S)Nc1ccccc1,1.9 µg/mL
8,COc1cc(CNc2ncnc3c2[nH]c2ccc(C)cc23)cc(OC)c1,0.7 µg/mL
9,CC1CCCC(NC(=O)COC(=O)c2ccc(Br)o2)C1C (stereo not drawn),8.2 µg/mL
10,Cc1cc(C)c(N=C2C(=O)Nc3ccccc32)c(C)c1,> 39.6 µg/mL
11,O=C(Nc1ccc(CN2CCOCC2)cc1)c1cc(Cl)ccc1Cl,50.1 µg/mL
12,CN(C)/C(=N\S(=O)(=O)c1ccc(F)cc1)c1ccccc1,> 46 µg/mL
13,O=C(O)c1ccccc1-c1ccccc1C(=O)Nc1cccc(Br)c1,53.6 µg/mL
14,Cc1oncc1C(=O)NC1CCCCC1,> 31.2 µg/mL
15,O=C(CC1S/C(=N/N=C2CCCCCC2)NC1=O)Nc1ccccc1F (stereo not drawn),> 56.5 µg/mL
16,COc1ccc(S(=O)(=O)Nc2cc(C)on2)cc1NC(C)=O,> 48.8 µg/mL
17,CC(C)C(NC(=O)c1ccc(F)cc1)C(=O)N1CCC1 (stereo not drawn),> 41.7 µg/mL
18,O=C(CCN=C1NS(=O)(=O)c2ccccc21)NCc1ccccc1F,> 54.2 µg/mL
19,COC(=O)c1c(S(=O)(=O)N2CCOCC2)c(C)n(C)c1C,> 47.5 µg/mL
20,COc1ccc(-c2cc(C(=O)NC3CCCC3)no2)cc1,0.4 µg/mL
21,COCCCn1c(=S)[nH]c(C)c(C)c1=O,> 34.2 µg/mL
22,Cc1nc2cccc(C(=O)Oc3ccc([N+](=O)[O-])cc3)c2o1,10.1 µg/mL
